Results: ChEMBL document CHEMBL1201862, “PubChem BioAssay data set” (2004)
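Results reflect a 48-hour exposure of cells in 96-well plates to compound at five concentrations. The concentration for 50% growth inhibition is given as GI50.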 The source made the active and inactive calls. No stated cut-off is given here; in the data, active = GI50 up to about 1.1 µM and inactive = higher.

Assays:
Assay in all cases: inhibition of tumour cell growth, NCI panel, 48 h
[1] = test system: DMS-114
[2] = test system: KM-20L2
[3] = test system: DLD-1
[4] = test system: LXFL 529
[5] = test system: M19-MEL
[6] = test system: XF498
[7] = test system: DMS-273
[8] = test system: SNB-78
[9] = test system: RXF 631

Measured: GI50

CNc1ccc(/C=C2\C=Cc3ccccc32)cc1
inactive: [1] 17 µM | [2] 19.1 µM | [3] 31.3 µM | [4] 25.9 µM | [5] 43.2 µM | [6] 40.9 µM | [7] 14.2 µM | [8] 44.6 µM

NNC(=S)N/N=C(\c1nc2ccc(Cl)cc2nc1O)C(O)c1cccc([N+](=O)[O-])c1 (stereo unspecified)
inactive: [9] 32.3 µM | [2] > 100 µM | [4] > 74.6 µM | [5] > 100 µM | [6] > 100 µM | [7] > 41.1 µM | [8] > 100 µM

CN(C)C(=S)/N=c1\ss/c(=N\C(=S)N(C)C)n1-c1ccc(Cl)cc1
inactive: [2] > 100 µM | [4] > 100 µM | [6] > 100 µM | [7] 39.9 µM | [8] > 100 µM

N#CCC(=O)N/N=C(\C(=O)Nc1ccc(Cl)c(Cl)c1)C1CN(c2ccccc2)N=C1N (stereo unspecified)
inactive: [1] > 100 µM | [2] > 100 µM | [3] > 100 µM | [4] > 100 µM | [5] > 100 µM | [7] > 100 µM | [8] > 100 µM

Cc1cc(=O)oc2c(C)c(OCCCOc3ccc4c(C)cc(=O)oc4c3C)ccc12
inactive: [1] > 100 µM | [2] > 100 µM | [3] > 100 µM | [4] > 100 µM | [5] > 100 µM | [6] > 100 µM | [7] > 100 µM | [8] > 100 µM

O=Cc1ccc(-c2ccc(-c3ccc(C=O)s3)o2)s1
inactive: [1] > 84.1 µM | [2] 31.3 µM | [3] 74.5 µM | [5] > 100 µM | [7] 26.2 µM | [8] > 72.8 µM
active: [9] 0.541 µM | [4] 0.186 µM

Cc1ccccc1NC(=O)C(=O)C(C#N)c1ccccc1C (stereo unspecified)
inactive: [1] > 100 µM | [2] > 100 µM | [3] > 100 µM | [4] > 100 µM | [6] 34 µM | [7] > 100 µM | [8] > 100 µM

COC(=O)N/N=C(\c1nc2ccc(Cl)cc2nc1O)C(O)c1ccc([N+](=O)[O-])cc1 (stereo unspecified)
inactive: [1] > 100 µM | [9] > 100 µM | [2] > 100 µM | [3] > 100 µM | [4] > 100 µM | [5] > 100 µM | [7] > 100 µM | [8] > 100 µM

Cc1c2c(cc3c(=O)ccn(CCN(C)C)c13)c(=O)ccn2CCN(C)C
inactive: [1] 16.3 µM | [2] 5.04 µM | [3] 6.84 µM | [4] 4.46 µM | [5] 16.4 µM | [6] 10.4 µM | [7] 4.18 µM | [8] 47.1 µM

FC(F)(F)C1(Br)C(c2ccccc2)=C1c1ccccc1
inactive: [1] 15.2 µM | [9] 22.6 µM | [2] 16.1 µM | [3] 14.7 µM | [4] 14.3 µM | [5] 15.6 µM | [6] 15.2 µM | [7] 17.9 µM | [8] 25.8 µM

O=CC[C@H]1CCc2ccccc2C12CCC(=O)CC2
inactive: [1] 33.8 µM | [9] > 100 µM | [2] 22.1 µM | [3] 60.7 µM | [4] 57.5 µM | [5] 57.7 µM | [6] 51.5 µM

CC(=O)Nc1ccc(C2C(C(=O)Nc3ccccc3)=C(C)NC(C)=C2C(=O)Nc2ccccc2)cc1
inactive: [1] 35.7 µM | [2] > 100 µM | [3] 97.5 µM | [4] > 64.9 µM | [5] > 100 µM | [6] > 100 µM | [7] > 100 µM | [8] > 100 µM

O=C1C2C(C(=O)N1c1ccccc1)C1c3ccccc3C2C2C(=O)N(c3ccccc3)C(=O)C21 (stereo unspecified)
inactive: [1] 3.08 µM | [2] 18.2 µM | [3] 2.73 µM | [4] 38.5 µM | [5] 39.5 µM | [7] 3.46 µM

CC(C)(C)OC(=O)C1=C(O)C(C(=O)OC(C)(C)C)C23CCCCC12C(C(=O)OC(C)(C)C)C(O)=C3C(=O)OC(C)(C)C (stereo unspecified)
inactive: [1] > 100 µM | [2] > 100 µM | [3] > 100 µM | [4] > 100 µM | [5] > 100 µM | [6] > 100 µM | [7] > 100 µM | [8] > 100 µM

O=C1C2=C(c3ccccc31)C(c1ccccc1Cl)NC(S)=N2 (stereo unspecified)
inactive: [2] 74.3 µM | [3] 64.9 µM | [4] 35.3 µM | [5] 44.2 µM | [6] 25.6 µM | [7] 68.7 µM

CCOC(=O)C(=O)Nc1c(CC)cccc1C(C)C
inactive: [2] > 100 µM | [3] > 100 µM | [4] > 100 µM | [5] > 100 µM | [6] > 100 µM | [7] > 100 µM | [8] > 100 µM

CCCCCCCCCCCC[S+](C)C
inactive: [1] 2.5 µM | [2] 5.11 µM | [3] 8.81 µM | [5] 1.45 µM | [6] 2.69 µM | [7] 5.2 µM | [8] 5.2 µM

COC(=O)c1oc([N+](=O)[O-])c(-c2ccccc2)c1-c1ccccc1
inactive: [1] 88.3 µM | [9] > 100 µM | [2] > 100 µM | [3] 76.2 µM | [4] > 100 µM | [5] 36.8 µM | [6] > 100 µM | [7] > 100 µM | [8] > 100 µM

N#Cc1c(N)c(C(=O)O)nn(-c2cccc(C(F)(F)F)c2)c1=O
inactive: [9] > 100 µM | [2] > 100 µM | [3] 70.3 µM | [4] > 100 µM | [5] > 100 µM | [6] > 100 µM | [8] > 100 µM

C=CCn1c2c(sc1=S)C(S)NC=N2 (stereo unspecified)
inactive: [1] 43.7 µM | [2] > 100 µM | [3] > 100 µM | [4] > 100 µM | [5] > 100 µM | [6] > 100 µM | [7] > 100 µM | [8] 78.2 µM

C=C1C(=O)OC2/C=C(\C=O)CC/C=C(\C)C(O)C[C@@H]12 (stereo partly specified)
inactive: [1] 11.7 µM | [2] 9.25 µM | [3] 2.39 µM | [4] 3.36 µM | [5] 5.45 µM | [6] 4.99 µM | [7] 4.36 µM | [8] 4.24 µM
